What was measured:
[1] = target: human α-thrombin (Homo sapiens, UniProt P00734); details: stated in brackets without method; inhibitor used with human α-thrombin; cited from earlier work
[2] = cited from earlier work
[3] = target: Human a Thrombin (Homo sapiens, UniProt P00734); assay: Binding of PMSF to a freely mounted thrombin crystal by dripping on microdrops, X-ray crystallographic examination; details: 100 mM PMSF in isopropyl alcohol dripped on thrombin crystal; active center around Ser195; FIG. 4
Source text: A thrombin crystal was mounted on the free mounting system by means of a loop at a previously determined initial humidity of 93%. Under a microscope, surplus reservoir buffer was cautiously removed from the loop by means of a strip of filter paper. The stability and the consistency of the size of the crystal, respectively, were monitored by means of the video system.
Herein, a highly concentrated PMSF solution in an organic solvent was used.
Subsequently, the crystal was bombarded with individual drops (single shot mode) of the solution. The total volume dripped on approximately corresponded to the volume of the crystal, i.e. about 300 pl. […] Herein, the projection of the surface of the crystal was monitored after each dripping-on and it was waited until the surface remained uniform again before the next drop was applied. The individual parameters of the experiment can be seen in Table 1.
After completion of dripping-on, the crystal was moistened with PFPE oil (perfluoropolyether) and shock-frozen in liquid nitrogen. The X-ray crystallographic data record was recorded on a rotating copper anode. Data processing was conducted by means of the programs XDS and XSCALE, refinement and manual model construction was conducted by means of the programs CNX and O. The statistics of data collection, processing, and refinement are given in Table 2.

Structure (SMILES)	Ki [1] [µM]	stability in an aqueous system [2]	binding mode seen in the experimentally determined electron density [3]
Cl.NCCc1ccc(S(=O)(=O)F)cc1 [Pefabloc SC, 4-(2-aminoethyl)-benzenesulfonyl-fluoride-hydrochloride]	6.5	high stability in an aqueous system	
O=S(=O)(F)Cc1ccccc1 [PMSF, Phenylmethylsulfonyl Fluoride]			covalent bond of the PMSF at Ser195
